Data as given in the supplement of paper PMC10307832.

How the values were obtained:
Assay in all cases: relative viability (nuclei count vs DMSO), 5 days (fraction); higher = more cells survive
[1] = compound: CC1=C(C(=O)N2C=CSC2=N1)CCN3CCC(=C(C4=CC=CC=C4)C5=CC=C(C=C5)F)CC3 + C[C@@H](Oc1cc(-c2cnn(C3CCNCC3)c2)cnc1N)c1c(Cl)ccc(F)c1Cl [Crizotinib] (partner 1 µM)
How it was run: (§1)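 Lung cancer cell lines in 1536-well plates were dosed by pin tool the day after seeding, either with one drug alone or with a fixed anchor-drug dose plus five library-drug doses (not always all listed) in √10 steps. After 5 days, cells were fixed and their nuclei stained in one step (final 0.05% Triton X-100, 1% formaldehyde, 1 ug/ml Hoechst), then counted on 4× images. Relative viability is the nuclei count in treated wells divided by that in vehicle wells. Values are medians of duplicate plates.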

[2] = compound: CC1=C(C(=O)N2C=CSC2=N1)CCN3CCC(=C(C4=CC=CC=C4)C5=CC=C(C=C5)F)CC3 + O=C(CCCCCCC(=O)Nc1ccccc1)NO [Vorinostat] (partner 1 µM)
How it was run: as §1

[3] = compound: CC1=C(C(=O)N2C=CSC2=N1)CCN3CCC(=C(C4=CC=CC=C4)C5=CC=C(C=C5)F)CC3 + Cc1cc(Nc2cc(N3CCN(C)CC3)nc(Sc3ccc(NC(=O)C4CC4)cc3)n2)n[nH]1 [Tozasertib] (partner 0.1 µM)
How it was run: as §1

[4] = compound: CC1=C(C(=O)N2C=CSC2=N1)CCN3CCC(=C(C4=CC=CC=C4)C5=CC=C(C=C5)F)CC3 + CC1(C)CCC(c2ccc(Cl)cc2)=C(CN2CCN(c3ccc(C(=O)NS(=O)(=O)c4ccc(N[C@H](CCN5CCOCC5)CSc5ccccc5)c(S(=O)(=O)C(F)(F)F)c4)cc3)CC2)C1 [Navitoclax] (partner 0.5 µM)
How it was run: as §1

| Cell Line | relative viability ([1]; first compound 0.08 µM) | relative viability ([1]; first compound 0.253 µM) | relative viability ([1]; first compound 0.8 µM) | relative viability ([1]; first compound 2.53 µM) | relative viability ([1]; first compound 8 µM) | relative viability ([2]; first compound 0.08 µM) | relative viability ([2]; first compound 0.8 µM) | relative viability ([2]; first compound 2.53 µM) | relative viability ([2]; first compound 8 µM) | relative viability ([3]; first compound 0.08 µM) | relative viability ([3]; first compound 0.253 µM) | relative viability ([3]; first compound 0.8 µM) | relative viability ([3]; first compound 2.53 µM) | relative viability ([3]; first compound 8 µM) | relative viability ([4]; first compound 0.08 µM) | relative viability ([4]; first compound 0.253 µM) | relative viability ([4]; first compound 0.8 µM) | relative viability ([4]; first compound 2.53 µM) | relative viability ([4]; first compound 8 µM) | relative viability ([2]; first compound 0.253 µM) |
| --- | --- | --- | --- | --- | --- | --- | --- | --- | --- | --- | --- | --- | --- | --- | --- | --- | --- | --- | --- | --- |
| NCI-H2405 | 0.817 | 0.788 | 0.871 | 0.858 | 0.725 | 1.18 | 1.08 | 1.06 | 0.789 | 0.777 | 0.767 | 0.749 | 0.601 | 0.618 | 0.892 | 0.968 | 1.08 | 0.962 | 0.705 | – |
| HCC-366 | – | 0.539 | 0.587 | 0.448 | 0.616 | 0.344 | 0.332 | 0.403 | 0.256 | 0.103 | 0.123 | 0.103 | 0.0901 | 0.0622 | – | 1.09 | 1.04 | 1.13 | 0.343 | 0.405 |
| NCI-H2342 | – | – | – | – | – | 0.63 | 0.778 | 0.795 | 0.6 | 0.559 | 0.492 | 0.585 | 0.504 | 0.431 | – | – | – | – | – | 0.882 |
| A-427 | 0.749 | 0.95 | 0.942 | 0.963 | 0.646 | 0.878 | 0.86 | 0.91 | 0.748 | 0.179 | 0.19 | 0.175 | 0.204 | 0.21 | 1.08 | 0.877 | 0.915 | 0.973 | 0.948 | 0.824 |
| HCC-15 | 0.804 | 0.88 | 0.933 | 0.795 | 0.576 | 0.927 | 0.869 | 0.788 | 0.606 | 0.347 | 0.447 | 0.379 | 0.368 | 0.281 | 0.697 | 0.601 | 0.762 | 0.791 | 0.528 | 0.96 |
| HOP-62 | 1.01 | 0.939 | 0.744 | 0.701 | 0.442 | 0.522 | 0.552 | 0.468 | 0.323 | 0.402 | 0.369 | 0.305 | 0.323 | 0.258 | 0.516 | 0.989 | 1.23 | 0.796 | 0.466 | 0.628 |
| NCI-H1993 | 0.708 | – | 0.796 | 0.906 | 0.832 | 0.87 | 0.885 | 0.92 | 0.756 | 0.627 | 0.502 | 0.557 | 0.64 | 0.495 | 0.954 | – | 1.12 | 1.05 | 0.917 | 0.715 |
| NCI-H460 | 0.597 | 1.16 | 1.09 | 0.794 | 0.188 | 0.516 | 1.05 | 1.22 | 0.261 | 0.272 | 0.57 | 0.392 | 0.409 | 0.252 | 0.787 | 0.957 | 1.55 | 1.56 | 0.0629 | 0.352 |
| ABC-1 | 1.13 | 1.42 | 0.931 | 0.722 | 0.748 | 1.14 | 0.938 | 0.949 | 0.784 | 0.15 | 0.181 | 0.165 | 0.206 | 0.174 | – | – | – | – | – | – |
| Calu-6 | 0.713 | 0.864 | 0.631 | 0.782 | 0.576 | – | – | – | – | – | – | – | – | – | 0.873 | 0.944 | 0.935 | 0.969 | 0.441 | – |
| UMC-11 | 0.636 | 0.597 | 0.619 | 0.48 | 0.839 | 0.38 | 0.354 | 0.333 | 0.405 | 0.208 | 0.225 | 0.194 | 0.212 | 0.202 | 0.288 | 0.253 | 0.294 | 0.309 | 0.276 | – |
| NCI-H1703 | 0.723 | 0.55 | 0.777 | 0.786 | 0.625 | – | – | – | – | – | – | – | – | – | 1.19 | 1.13 | 1.1 | 1.3 | 0.627 | – |
| NCI-H650 | – | 0.791 | 0.377 | 0.718 | 0.608 | 0.731 | 0.482 | 0.486 | 0.369 | 0.695 | 0.801 | 0.748 | 0.723 | 0.689 | – | – | – | – | – | 0.395 |
| NCI-H358 | 0.455 | 0.327 | 0.413 | 0.548 | 0.609 | 0.687 | 0.808 | 0.885 | 0.441 | 0.0851 | 0.0942 | 0.0998 | 0.129 | 0.112 | – | – | – | – | – | 0.753 |
| EBC-1 | 0.215 | – | 0.194 | 0.177 | 0.196 | – | – | – | – | – | – | – | – | – | 0.396 | 0.344 | 0.401 | 0.316 | 0.369 | – |
| LCLC-103H | 1.05 | 1.06 | 1.04 | 0.947 | 0.836 | 0.891 | 0.76 | 0.75 | 0.709 | 0.437 | 0.449 | 0.451 | 0.486 | 0.532 | – | – | – | – | – | 0.784 |
| NCI-H661 | 0.848 | 1.01 | 1.21 | 1 | 0.801 | 0.765 | 0.817 | 0.838 | 0.406 | 0.341 | 0.35 | 0.36 | 0.383 | 0.361 | – | – | – | – | – | 0.761 |
| NCI-H1792 | 1.01 | 0.671 | 1.02 | 1.11 | 0.549 | – | – | – | – | – | – | – | – | – | 0.454 | 0.518 | 0.602 | 0.481 | 0.47 | – |
| A549 | 0.855 | 0.777 | 0.665 | 0.64 | 0.579 | – | – | – | – | – | – | – | – | – | 1.32 | 1.19 | 1.3 | 1.37 | 0.673 | – |
| NCI-H1299 | 0.971 | 0.943 | 0.976 | 0.965 | 0.69 | – | – | – | – | – | – | – | – | – | 1.14 | 1.03 | 1.03 | 1.06 | 0.654 | – |
| NCI-H1395 | – | – | – | – | – | 0.714 | 0.525 | 0.691 | 0.646 | 0.809 | 0.868 | 0.697 | 0.765 | 0.686 | 1.19 | 1.46 | 1.02 | 1.05 | 1.05 | 0.786 |
